Biological target: human TPH1 (Homo sapiens (Human), UniProt P17752)
Experiment: Biochemical in vitro assay using fluorescence readout (TPH1 inhibition)
[1] = human TPH1, fluorescence readout
[2] = full length human TPH1, 40 μM L-tryptophan, 15° C., 60 minutes, fluorescence at 540 nm, mean if determined several times

Chain of human TPH1 (P17752 whole entry): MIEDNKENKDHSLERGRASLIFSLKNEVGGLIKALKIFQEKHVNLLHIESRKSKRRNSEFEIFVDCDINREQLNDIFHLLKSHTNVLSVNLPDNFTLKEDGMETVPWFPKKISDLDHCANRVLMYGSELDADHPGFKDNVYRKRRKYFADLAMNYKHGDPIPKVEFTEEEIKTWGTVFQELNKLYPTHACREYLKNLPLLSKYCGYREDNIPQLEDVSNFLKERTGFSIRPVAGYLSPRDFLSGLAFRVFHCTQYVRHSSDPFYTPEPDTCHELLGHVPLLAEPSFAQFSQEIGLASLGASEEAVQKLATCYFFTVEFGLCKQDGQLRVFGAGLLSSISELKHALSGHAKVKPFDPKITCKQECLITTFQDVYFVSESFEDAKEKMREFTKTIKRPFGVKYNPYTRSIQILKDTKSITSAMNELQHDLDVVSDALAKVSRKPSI

`N#Cc1ccc(OCC(=O)N2CCc3nc4sccn4c3C2c2ncc(C3CC3)cc2F)c(Cl)n1` (centres unmarked) [Example 6.7.2, 6-chloro-5-(2-(5-(5-cyclopropyl-3-fluoropyridin-2-yl)-7,8-dihydrothiazolo[2′,3′:2,3]imidazo[4,5-c]pyridin-6(5H)-yl)-2-oxoethoxy)picolinonitrile] showed an IC50 [1] of 17 nM.
In the case of `Cc1cc(Cl)ccc1OCC(=O)N1CCc2nc3sccn3c2C1c1nc2ccccc2s1` (centres unmarked) [Example 6.12.4, 1-(5-(benzo[d]thiazol-2-yl)-7,8-dihydrothiazolo-[2′,3′:2,3]imidazo[4,5-c]pyridin-6(5H)-yl)-2-(4-chloro-2-methylphenoxy)ethanone], the IC50 [1] is reported as 36 nM.
Work on `Cc1nn2c3c(nc2s1)CCN(C(=O)COc1ccc(C(=O)N(C)C)nc1Cl)[C@H]3c1sc(C(=O)N(C)C)cc1F` [Example 1.24.11] yielded an IC50 [1] of 4 nM.
For `CCc1nc(NS(C)(=O)=O)ccc1OCC(=O)N1CCc2nc3sc(CF)nn3c2C1c1ccc(Cl)cc1F` (centres unmarked) [Example 7.1.2, N-(5-(2-(5-(4-chloro-2-fluorophenyl)-2-(fluoromethyl)-7,8-dihydro-[1,3,4]thiadiazolo[2′,3′:2,3]imidazo[4,5-c]pyridin-6(5H)-yl)-2-oxoethoxy)-6-ethylpyridin-2-yl)methanesulfonamide], the IC50 [1] was 8 nM.
For `Cc1nn2c3c(nc2s1)CCN(C(=O)COc1ccc(N2C[C@@H](C)C[C@H](C)C2)nc1Cl)C3c1ccc(Cl)cc1F` (stereo partly drawn) [Example 1.4.20, 1-(5-(4-Chloro-2-fluorophenyl)-2-methyl-7,8-dihydro-[1,3,4]thiadiazolo[2′,3′:2,3]imidazo[4,5-c]pyridin-6(5H)-yl)-2-((2-chloro-6-((3S,5S)-3,5-dimethylpipe-ridin-1-yl)pyridin-3-yl)oxy)ethanone], the IC50 [2] was 3 nM.
For `Cc1nn2c3c(nc2s1)CCN(C(=O)C(C)(C)Oc1ccc(NS(C)(=O)=O)nc1Cl)C3c1ccc(Cl)cc1F` (centres unmarked) [Example 1.4.56, N-(6-chloro-5-((1-(5-(4-chloro-2-fluorophenyl)-2-methyl-7,8-dihydro-[1,3,4]thiadiazolo[2′,3′:2,3]imidazo[4,5-c]pyridin-6(5H)-yl)-2-methyl-1-oxopropan-2-yl)oxy)pyridin-2-yl)methanesulfonamide], the IC50 [1] was 567 nM.
`Cc1nn2c3c(nc2s1)CCN(C(=O)COc1ccc(C(=O)NO)nc1Cl)C3c1ccc(Cl)cc1F` (centres unmarked) [Example 1.4.25, 6-Chloro-5-(2-(5-(4-chloro-2-fluorophenyl)-2-methyl-7,8-dihydro-[1,3,4]thiadiazolo[2′,3′:2,3]imidazo[4,5-c]pyridin-6(5H)-yl)-2-oxoethoxy)-N-hydroxy-picolinamide] showed an IC50 [2] of 14 nM.
In the case of `Cc1ccc(Cl)c(OCC(=O)N2CCc3nc4sccn4c3C2c2cc3cccnc3s2)c1` (centres unmarked) [Example 6.14.5, 2-(2-chloro-5-methylphenoxy)-1-(5-(thieno[2,3-b]-pyridin-2-yl)-7,8-dihydrothiazolo[2′,3′:2,3]imidazo[4,5-c]pyridin-6(5H)-yl)ethanone], the IC50 [1] is reported as 43 nM.
For `CS(=O)(=O)Nc1ccc(OCC(=O)N2CCc3nc4sccn4c3C2c2sccc2F)c(Cl)n1` (centres unmarked) [Example 6.8.4, N-(6-chloro-5-(2-(5-(3-fluorothiophen-2-yl)-7,8-dihydrothiazolo[2′,3′:2,3]imidazo[4,5-c]pyridin-6(5H)-yl)-2-oxoethoxy)pyridin-2-yl)methanesulfonamide], the IC50 [1] was 7 nM.
In the case of `Cc1nn2c3c(nc2s1)CCN(C(=O)COc1ccc(N2CCOCC2)nc1Cl)C3c1cnc(N(C)C)s1` (centres unmarked) [Example 1.22.1, 2-((2-Chloro-6-morpholinopyridin-3-yl)oxy)-1-(5-(2-(dimethylamino)-thiazol-5-yl)-2-methyl-7,8-dihydro[1,3,4]thiadiazolo[2′,3′:2,3]imidazo[4,5-c]pyridin-6(5H)-yl)ethanone], the IC50 [2] is reported as 7 nM.
`COC(C)(C)c1ccc(C2c3c(nc4sc(C)nn34)CCN2C(=O)COc2ccc(C(=O)NC3CC3)nc2Cl)c(F)c1` (centres unmarked) [Example 1.81.1, 6-chloro-N-cyclopropyl-5-(2-(5-(2-fluoro-4-(2-methoxypropan-2-yl)phenyl)-2-methyl-7,8-dihydro-[1,3,4]thiadiazolo[2′,3′:2,3]imidazo[4,5-c]pyridin-6(5H)-yl)-2-oxoethoxy)picolinamide] showed an IC50 [1] of 27 nM.
For `Cc1nn2c3c(nc2s1)CCN(C(=O)COc1ccc(N2CC(F)(F)C2)nc1Cl)C3c1ccc(Cl)cc1F` (centres unmarked) [Example 1.4.18, 1-(5-(4-Chloro-2-fluorophenyl)-2-methyl-7,8-dihydro-[1,3,4]thiadiazolo[2′,3′:2,3]imidazo[4,5-c]pyridin-6(5H)-yl)-2-((2-chloro-6-(3,3-difluoroazetidin-1-yl)-pyridin-3-yl)oxy)ethanone], the IC50 [2] was 3 nM.
Compound `Cc1nn2c3c(nc2s1)CCN(C(=O)COc1ccc(C(=O)N(C)C)nc1Cl)C3c1ncc(C2CC2)cc1F` (centres unmarked) [Example 1.14.8, 6-chloro-5-(2-(5-(5-cyclopropyl-3-fluoropyridin-2-yl)-2-methyl-7,8-dihydro-[1,3,4]thiadiazolo[2′,3′:2,3]imidazo[4,5-c]pyridin-6(5H)-yl)-2-oxoethoxy)-N,N-dimethylpicolinamide] has an IC50 [1] of 3 nM.
Work on `Cc1cnc(C2c3c(nc4sc(C)nn34)CCN2C(=O)COc2ccc(NS(C)(=O)=O)nc2Cl)c(F)c1` (centres unmarked) [Example 1.31.8, N-(6-chloro-5-(2-(5-(3-fluoro-5-methylpyridin-2-yl)-2-methyl-7,8-dihydro-[1,3,4]thiadiazolo[2′,3′:2,3]imidazo[4,5-c]pyridin-6(5H)-yl)-2-oxoethoxy)pyridin-2-yl)methanesulfonamide] yielded an IC50 [1] of 9 nM.
Work on `Cc1cnc(C2c3c(nc4sc(C)nn34)CCN2C(=O)COc2ccc(-c3ncco3)nc2Cl)c(F)c1` (centres unmarked) [Example 1.31.13, 2-((2-chloro-6-(oxazol-2-yl)pyridin-3-yl)oxy)-1-(5-(3-fluoro-5-methylpyridin-2-yl)-2-methyl-7,8-dihydro-[1,3,4]thiadiazolo[2′,3′:2,3]imidazo[4,5-c]pyridin-6(5H)-yl)ethanone] yielded an IC50 [1] of 16 nM.
Work on `Cc1nn2c3c(nc2s1)CCN(C(=O)COc1ccc(N2CCOCC2)nc1Cl)C3c1nc(N)sc1F` (centres unmarked) [Example 1.52.1, 1-(5-(2-Amino-5-fluorothiazol-4-yl)-2-methyl-7,8-dihydro-[1,3,4]thiadiazolo[2′,3′:2,3]-imidazo[4,5-c]pyridin-6(5H)-yl)-2-((2-chloro-6-morpholinopyridin-3-yl)oxy)ethanone] yielded an IC50 [2] of 6 nM.
`Cc1nn2c3c(nc2s1)CCN(C(=O)COc1ccc(C(F)(F)F)nc1Cl)C3c1ccc(Cl)nc1F` (centres unmarked) [Example 1.16.4, 1-(5-(6-chloro-2-fluoropyridin-3-yl)-2-methyl-7,8-dihydro-[1,3,4]thiadiazolo[2′,3′:2,3]imidazo[4,5-c]pyridin-6(5H)-yl)-2-((2-chloro-6-(trifluoromethyl)pyridin-3-yl)oxy)ethanone] gave an IC50 [1] of 27 nM.
`CCc1nc(NS(C)(=O)=O)ccc1OCC(=O)N1CCc2nc3sc(C(F)F)nn3c2C1c1ccc(Cl)cc1F` (centres unmarked) [Example 8.1.2, N-(5-(2-(5-(4-chloro-2-fluorophenyl)-2-(difluoromethyl)-7,8-dihydro-[1,3,4]thiadiazolo[2′,3′:2,3]imidazo[4,5-c]pyridin-6(5H)-yl)-2-oxoethoxy)-6-ethylpyridin-2-yl)methanesulfonamide] was tested, and the IC50 [1] was 10 nM.
“5-(2-(5-(4-(aminomethyl)-2-fluorophenyl)-2-methyl-7,8-dihydro-[1,3,4]thiadiazolo[2′,3′:2,3]imidazo[4,5-c]pyridin-6(5H)-yl)-2-oxoethoxy)-6-chloro-N-cyclopropylpicolinamide [Example 1.78.2]” was tested, and the IC50 [1] was 18 nM.
`CS(=O)(=O)Nc1ccc(OCC(=O)N2CCc3nc4sccn4c3C2c2sccc2F)c(Cl)c1` (centres unmarked) [Example 6.8.5, N-(3-chloro-4-(2-(5-(3-fluorothiophen-2-yl)-7,8-dihydro-thiazolo[2′,3′:2,3]imidazo[4,5-c]pyridin-6(5H)-yl)-2-oxoethoxy)phenyl)methanesulfonamide] gave an IC50 [1] of 9 nM.
`Cc1nn2c3c(nc2s1)CCN(C(=O)COc1ccc(C(=O)N(C)C)nc1Cl)C3c1sccc1F` (centres unmarked) [Example 1.23.6, 6-chloro-5-(2-(5-(3-fluorothiophen-2-yl)-2-methyl-7,8-dihydro-[1,3,4]thiadiazolo[2′,3′:2,3]imidazo[4,5-c]pyridin-6(5H)-yl)-2-oxoethoxy)-N,N-dimethylpicolinamide] gave an IC50 [1] of 5 nM.
`Cc1nn2c3c(nc2s1)CCN(C(=O)COc1ccc(C(=O)N(C)C)nc1Cl)C3c1sc(C(=O)N(C)C)cc1F` (centres unmarked) [Example 1.24.7, 6-chloro-5-(2-(5-(5-(dimethylcarbamoyl)-3-fluorothiophen-2-yl)-2-methyl-7,8-dihydro-[1,3,4]thiadiazolo[2′,3′:2,3]imidazo[4,5-c]pyridin-6(5H)-yl)-2-oxoethoxy)-N,N-dimethylpicolinamide] was tested, and the IC50 [1] was 5 nM.
In the case of `COc1ccc(C2c3c(nc4sccn34)CCN2C(=O)COc2ccc(CN3CCOCC3)nc2Cl)c(F)c1` (centres unmarked) [Example 6.3.2, 2-((2-chloro-6-(morpholinomethyl)pyridin-3-yl)oxy)-1-(5-(2-fluoro-4-methoxyphenyl)-7,8-dihydrothiazolo-[2′,3′:2,3]imidazo[4,5-c]pyridin-6(5H)-yl)ethanone], the IC50 [1] is reported as 9 nM.
For `CCc1nc(NS(C)(=O)=O)ncc1OCC(=O)N1CCc2nc3sc(C)nn3c2[C@@H]1c1ncc(C)cc1F` [Example 1.31.19, (R)-N-(4-ethyl-5-(2-(5-(3-fluoro-5-methylpyridin-2-yl)-2-methyl-7,8-dihydro-[1,3,4]thiadiazolo[2′,3′:2,3]imidazo[4,5-c]pyridin-6(5H)-yl)-2-oxoethoxy)pyrimidin-2-yl)methanesulfonamide], the IC50 [1] was 51 nM.
`CONC(=O)c1ccc(OCC(=O)N2CCc3nc4sc(C)nn4c3C2c2ccc(Cl)cc2F)c(Cl)n1` (centres unmarked) [Example 1.4.41, 6-Chloro-5-(2-(5-(4-chloro-2-fluorophenyl)-2-methyl-7,8-dihydro-[1,3,4]thiadiazolo[2′,3′:2,3]imidazo[4,5-c]pyridin-6(5H)-yl)-2-oxoethoxy)-N-methoxypicolinamide] gave an IC50 [2] of 6 nM.
In the case of `Cc1nn2c3c(nc2s1)CCN(C(=O)COc1ccc(N(C)S(C)(=O)=O)nc1Cl)C3c1ccc(Cl)cc1F` (centres unmarked) [Example 1.4.48, N-(6-chloro-5-(2-(5-(4-chloro-2-fluorophenyl)-2-methyl-7,8-dihydro-[1,3,4]thiadiazolo[2′,3′:2,3]imidazo[4,5-c]pyridin-6(5H)-yl)-2-oxoethoxy)pyridin-2-yl)-N-methylmethanesulfonamide], the IC50 [1] is reported as 10 nM.

Source: patent US9765092B2, “Tricyclic piperidine compounds” (ACTELION PHARMACEUTICALS LTD, priority 2013, dated 2017)
